According to patent US5446066A, “Substituted (arylalkoxybenzyl)aminopropanamide derivatives and process for their preparation” (Farmitalia Carlo Erba S.r.l., priority 1993, dated 1995):

Key:
in vivo = assay: in vivo
Experimental: The neurotoxicity of the compound and of the reference anticonvulsants was assessed with the rotorod test (Dunan and Miye., J. Am. Pharm. Ass. Sci. Ed., 1957, 46, 208; Kinnard et al., J. Pharmacol. Exp. Ther. 1957, 121, 354; Horowitz. Nature, 1963, 200, 369).
(§1) For instance, the following Table 1 summarizes the activity and neurotoxicity data obtained in the MES test and in the rotorod test, respectively, for a representative group of compounds according to the present invention, in comparison with the prior art compound 2-[4-(3-phenylpropyl)oxybenzyl]aminopropanamide methanesulfonate (internal code FCE 27023) which is known from WO-90/14334
TD50 means toxic dose in 50% of treated animals
TI means therapeutic index (TD50 /ED50)

[1] = antagonism of maximal electroshock seizures (MES test); format: in vivo; conditions: read-out: MES-ED50 (effective dose in 50% of treated animals)
Experimental: The compounds of the invention are active on the central nervous system (CNS) and can be used in therapy, for example as antiepileptics, in the treatment of Parkinson's disease and as neuroprotective agents, e.g. in degenerative processes associated with normal ageing or pathological situations, such as brain ischemia; they can also be used as antidepressants, hypnotics and antispastic agents. The activity on the CNS of the compounds of the invention was evaluated on the basis of pharmacological methods, such as, for example, the antagonism of convulsions and lethality induced by intravenous injection of bicuculline in mice (Antiepileptic Drugs, D. M. Woodbury et al. eds., 2nd edition, Raven Press, New York, 1982), or the antagonism of maximal electroshock seizures (MES) (Woodbury, L. A. and Davenport V. D., Arch. Int. Pharmacodyn. Ther. 92; 97-104, 1952).
as §1
ED50 means effective dose in 50% of treated animals

| SMILES | TD50 (in vivo) [mg/kg] | selectivity ratio (in vivo) | ED50 [1] [mg/kg] |
| --- | --- | --- | --- |
| CC(NCc1ccc(OCCCc2ccccc2)cc1)C(N)=O (stereo not drawn) [compound 27023] | 584 | 66 | 8.8 |
| CC(NCc1ccc(OCCCCc2ccccc2)cc1)C(N)=O (stereo not drawn) [compound 28243] | 1000 | 82 | 12.4 |
| CC(NCc1ccc(OCCCCCc2ccccc2)cc1)C(N)=O (stereo not drawn) [compound 28244] | 1010 | 81 | 12.5 |
| NC(=O)C(CO)NCc1ccc(OCCCc2ccccc2)cc1 (stereo not drawn) [compound 28245] | 863 | 100 | 8.6 |
